# Experimental data published in PMC5379148, “A phase I study of intravenous and oral rucaparib in combination with chemotherapy in patients with advanced solid tumours” (British Journal of Cancer, 2017).
# Test: Plasma pharmacokinetics of rucaparib (LC-MS/MS, noncompartmental)
# Details: for Vd / AUC(0-t) / AUC(0-inf) / Cmax / Tmax / bioavailability / Tmax at 14 days: human, plasma; for AUC(0-inf): AUCinf; for Tmax / Tmax at 14 days: median (minimum, maximum)
# [1] = iv, 12 mg, single i.v. dose 12 mg, day –10, geometric mean (CV%)
# [2] = iv, 18 mg, single i.v. dose 18 mg, day –10, geometric mean (CV%)
# [3] = iv, 24 mg, single i.v. dose 24 mg, day –10, geometric mean (CV%)
# [4] = iv, 27 mg, single i.v. dose 27 mg, day –10, geometric mean (CV%)
# [5] = iv, 40 mg, single i.v. dose 40 mg, day –10, geometric mean (CV%)
# [6] = po, 12 mg, single oral dose 12 mg, day –5, geometric mean (CV%)
# [7] = po, 36 mg, single oral dose 36 mg, day –5, geometric mean (CV%)
# [8] = po, 48 mg, single oral dose 48 mg, day –5, geometric mean (CV%)
# [9] = po, 72 mg, single oral dose 72 mg, day –5, geometric mean (CV%)
# [10] = po, 80 mg, single oral dose 80 mg, day 1, geometric mean (CV%)
# [11] = po, 80 mg, single oral dose 80 mg, day –5, geometric mean (CV%)
# [12] = po, 120 mg, single oral dose 120 mg, day 1, geometric mean (CV%)
# [13] = po, 120 mg, single oral dose 120 mg, day –5, geometric mean (CV%)
# [14] = po, 180 mg, single oral dose 180 mg, day –5, geometric mean (CV%)
# [15] = po, 240 mg, single oral dose 240 mg, day 1, geometric mean (CV%)
# [16] = po, 240 mg, single oral dose 240 mg, day –5, geometric mean (CV%)
# [17] = po, 360 mg, single oral dose 360 mg, day 1, geometric mean (CV%)
# [18] = po, 360 mg, single oral dose 360 mg, day –5, geometric mean (CV%)
# Procedure: On cycle 1 days −10, −5, 1, and 14, plasma samples were obtained from all patients before rucaparib dosing and at 15 and 30 min, and at 1, 1.5, 2.5, 4, 6, 10, and 24 h after the start of the rucaparib administration (i.v. infusion (day −10) or oral (days −5, 1, and 14)). On cycle 1 days −10 and −5, samples were also obtained 48 h after the start of rucaparib administration. Rucaparib concentration was determined using liquid chromatography with tandem mass spectrometry.
# Plasma clearance or apparent plasma clearance and steady-state volume of distribution were calculated for rucaparib. The oral bioavailability of rucaparib was calculated as the ratio of dose-normalised AUC0–t or AUCinf (data permitting) determined using oral rucaparib PK data collected on cycle 1 day −5 to that determined using the i.v. PK data collected on cycle 1 day −10. Pharmacokinetic parameters were summarised with the geometric mean and the coefficient of variation (CV). The ratio of Cmax and AUC0–24 of rucaparib administered in combination with chemotherapies to those of rucaparib alone was calculated and summarised, with mean and CV% to evaluate the effect of chemotherapies on the PK of rucaparib for both the i.v. dose (day −10) and oral dose (day −5).
# The oral bioavailability of rucaparib was calculated as the ratio of dose-normalised AUC0-t or AUCinf (data permitting) determined using oral rucaparib PK data collected on cycle 1 day –5 to that determined using the intravenous PK data collected on cycle 1 day –10. The tmax was summarised with medians and ranges. The accumulation ratio after multiple oral rucaparib dosing (once daily) was assessed as the ratio of the AUC0-24 determined using PK collected on cycle 1 day 14 to the AUC0-24 after the cycle 1 day –5 lead-in dose. The ratio of the Cmax on day 14 to the Cmax on day –5 was also calculated. Additionally, the ratio of the AUC0-24 on cycle 1 day 14 to the AUCinf after the cycle 1 day –5 lead-in dose was calculated as an indication for any time-dependent change in rucaparib PK.
structure (smiles),measurement,setting,value
CNCc1ccc(-c2[nH]c3cc(F)cc4c3c2CCNC4=O)cc1 [rucaparib],impact of chemotherapy coadministration on i.v. rucaparib PK,"carboplatin+paclitaxel, cisplatin+pemetrexed, or epirubicin+cyclophosphamide",No apparent impact
same,Vd,"iv, 12 mg",258 L
same,AUC(0-t),"iv, 12 mg, AUC0-24, single i.v. dose 12 mg, day –10, geometric mean (CV%)",549 ng·h/mL
same,AUC(0-inf),[1],740 ng·h/mL
same,Cmax,[1],324 ng/mL
same,Tmax,"iv, 12 mg, single i.v. dose 12 mg, day –10",0.5 h
same,Vd,"iv, 18 mg",234 L
same,AUC(0-t),"iv, 18 mg, AUC0-24, single i.v. dose 18 mg, day –10, geometric mean (CV%)",812 ng·h/mL
same,AUC(0-inf),[2],976 ng·h/mL
same,Cmax,[2],498 ng/mL
same,Tmax,"iv, 18 mg, single i.v. dose 18 mg, day –10",0.5 h
same,Vd,"iv, 24 mg",262 L
same,AUC(0-t),"iv, 24 mg, AUC0-24, single i.v. dose 24 mg, day –10, geometric mean (CV%)",1220 ng·h/mL
same,AUC(0-inf),[3],1710 ng·h/mL
same,Cmax,[3],627 ng/mL
same,Tmax,"iv, 24 mg, single i.v. dose 24 mg, day –10",0.5 h
same,Vd,"iv, 27 mg",191 L
same,AUC(0-t),"iv, 27 mg, AUC0-24, single i.v. dose 27 mg, day –10, geometric mean (CV%)",1450 ng·h/mL
same,AUC(0-inf),[4],1900 ng·h/mL
same,Cmax,[4],866 ng/mL
same,Tmax,"iv, 27 mg, single i.v. dose 27 mg, day –10",0.38 h
same,Vd,"iv, 40 mg",113 L
same,AUC(0-t),"iv, 40 mg, AUC0-24, single i.v. dose 40 mg, day –10, geometric mean (CV%)",2530 ng·h/mL
same,AUC(0-inf),[5],2880 ng·h/mL
same,Cmax,[5],1610 ng/mL
same,Tmax,"iv, 40 mg, single i.v. dose 40 mg, day –10",0.5 h
same,bioavailability,po,36%
same,bioavailability,"po, 12 mg",33.4%
same,AUC(0-t),"po, 12 mg, AUC0-24, single oral dose 12 mg, day –5, geometric mean (CV%)",155 ng·h/mL
same,AUC(0-inf),[6],225 ng·h/mL
same,Cmax,[6],24 ng/mL
same,Tmax,"po, 12 mg, single oral dose 12 mg, day –5",1 h
same,bioavailability,"po, 36 mg",45.3%
same,AUC(0-t),"po, 36 mg, AUC0-24, single oral dose 36 mg, day –5, geometric mean (CV%)",696 ng·h/mL
same,AUC(0-inf),[7],1100 ng·h/mL
same,Cmax,[7],90 ng/mL
same,Tmax,"po, 36 mg, single oral dose 36 mg, day –5",2 h
same,bioavailability,"po, 48 mg",33.6%
same,AUC(0-t),"po, 48 mg, AUC0-24, single oral dose 48 mg, day –5, geometric mean (CV%)",620 ng·h/mL
same,AUC(0-inf),[8],922 ng·h/mL
same,Cmax,[8],80 ng/mL
same,Tmax,"po, 48 mg, single oral dose 48 mg, day –5",1.25 h
same,bioavailability,"po, 72 mg",30.1%
same,AUC(0-t),"po, 72 mg, AUC0-24, single oral dose 72 mg, day –5, geometric mean (CV%)",893 ng·h/mL
same,AUC(0-inf),[9],1090 ng·h/mL
same,Cmax,[9],108 ng/mL
same,Tmax,"po, 72 mg, single oral dose 72 mg, day –5",2 h
same,bioavailability,"po, 80 mg",30.7%
same,AUC(0-t),"po, 80 mg, AUC0-24, oral 80 mg q.d. for 14 days, n = 1",2210 ng·h/mL
same,AUC(0-t),"po, 80 mg, AUC0-24, single oral dose 80 mg, day 1, geometric mean (CV%)",1380 ng·h/mL
same,AUC(0-t),"po, 80 mg, AUC0-24, single oral dose 80 mg, day –5, geometric mean (CV%)",1270 ng·h/mL
same,AUC(0-inf),[10],1700 ng·h/mL
same,AUC(0-inf),[11],1920 ng·h/mL
same,Cmax,"po, 80 mg, oral 80 mg q.d. for 14 days, n = 1",190 ng/mL
same,Cmax,[10],99 ng/mL
same,Cmax,[11],114 ng/mL
same,Tmax at 14 days,"po, 80 mg, oral 80 mg q.d. for 14 days",2.5 h
same,Tmax,"po, 80 mg, single oral dose 80 mg, day 1",4 h
same,Tmax,"po, 80 mg, single oral dose 80 mg, day –5",2.5 h
same,bioavailability,"po, 120 mg",41.1%
same,AUC(0-t),"po, 120 mg, AUC0-24, oral 120 mg q.d. for 14 days, geometric mean (CV%)",4040 ng·h/mL
same,AUC(0-t),"po, 120 mg, AUC0-24, single oral dose 120 mg, day 1, geometric mean (CV%)",3260 ng·h/mL
same,AUC(0-t),"po, 120 mg, AUC0-24, single oral dose 120 mg, day –5, geometric mean (CV%)",2920 ng·h/mL
same,AUC(0-inf),[12],3770 ng·h/mL
same,AUC(0-inf),[13],4070 ng·h/mL
same,Cmax,"po, 120 mg, oral 120 mg q.d. for 14 days, geometric mean (CV%)",375 ng/mL
same,Cmax,[12],344 ng/mL
same,Cmax,[13],274 ng/mL
same,Tmax at 14 days,"po, 120 mg, oral 120 mg q.d. for 14 days",2.5 h
same,Tmax,"po, 120 mg, single oral dose 120 mg, day 1",4 h
same,Tmax,"po, 120 mg, single oral dose 120 mg, day –5",4 h
same,AUC(0-t),"po, 180 mg, AUC0-24, oral 180 mg q.d. for 14 days, geometric mean (CV%)",7660 ng·h/mL
same,AUC(0-t),"po, 180 mg, AUC0-24, single oral dose 180 mg, day 1, geometric mean (CV%)",5920 ng·h/mL
same,AUC(0-t),"po, 180 mg, AUC0-24, single oral dose 180 mg, day –5, geometric mean (CV%)",5610 ng·h/mL
same,AUC(0-inf),[14],8410 ng·h/mL
same,Cmax,"po, 180 mg, oral 180 mg q.d. for 14 days, geometric mean (CV%)",454 ng/mL
same,Cmax,"po, 180 mg, single oral dose 180 mg, day 1, geometric mean (CV%)",527 ng/mL
same,Cmax,[14],410 ng/mL
same,Tmax at 14 days,"po, 180 mg, oral 180 mg q.d. for 14 days",4 h
same,Tmax,"po, 180 mg, single oral dose 180 mg, day 1",6 h
same,Tmax,"po, 180 mg, single oral dose 180 mg, day –5",4 h
same,AUC(0-t),"po, 240 mg, AUC0-24, oral 240 mg q.d. for 14 days, geometric mean (CV%)",7560 ng·h/mL
same,AUC(0-t),"po, 240 mg, AUC0-24, single oral dose 240 mg, day 1, geometric mean (CV%)",5130 ng·h/mL
same,AUC(0-t),"po, 240 mg, AUC0-24, single oral dose 240 mg, day –5, geometric mean (CV%)",5030 ng·h/mL
same,AUC(0-inf),[15],4370 ng·h/mL
same,AUC(0-inf),[16],6990 ng·h/mL
same,Cmax,"po, 240 mg, oral 240 mg q.d. for 14 days, geometric mean (CV%)",527 ng/mL
same,Cmax,[15],493 ng/mL
same,Cmax,[16],442 ng/mL
same,Tmax at 14 days,"po, 240 mg, oral 240 mg q.d. for 14 days",4 h
same,Tmax,"po, 240 mg, single oral dose 240 mg, day 1",4 h
same,Tmax,"po, 240 mg, single oral dose 240 mg, day –5",4 h
same,AUC(0-t),"po, 360 mg, AUC0-24, oral 360 mg q.d. for 14 days, geometric mean (CV%)",15600 ng·h/mL
same,AUC(0-t),"po, 360 mg, AUC0-24, single oral dose 360 mg, day 1, geometric mean (CV%)",8280 ng·h/mL
same,AUC(0-t),"po, 360 mg, AUC0-24, single oral dose 360 mg, day –5, geometric mean (CV%)",9170 ng·h/mL
same,AUC(0-inf),[17],9980 ng·h/mL
same,AUC(0-inf),[18],11000 ng·h/mL
same,Cmax,"po, 360 mg, oral 360 mg q.d. for 14 days, geometric mean (CV%)",1050 ng/mL
same,Cmax,[17],697 ng/mL
same,Cmax,[18],814 ng/mL
same,Tmax at 14 days,"po, 360 mg, oral 360 mg q.d. for 14 days",4 h
same,Tmax,"po, 360 mg, single oral dose 360 mg, day 1",4 h
same,Tmax,"po, 360 mg, single oral dose 360 mg, day –5",4 h
